US20120252741A1, “NOVEL SEMI-SYNTHETIC GLYCOPEPTIDES AS ANTIBACTERIAL AGENTS” (priority 2008, published 2012)
≈ marks a conversion by molar mass, not a printed value. Where two headings read alike, the source gives them in different places.

How the values were obtained:
Assay type in all cases: cell-based
[1] = test system: Staphylococcus aureus 100 (ATCC 29213); assay: MIC, broth microdilution, SA 100; details: Staphylococcus aureus, ATCC29213, class symbols, read-out: MIC SA 100
Method: (§1) Antibacterial activity in vitro is investigated by broth microdilution method in Meuller-Hinton broth as recommended by NCCLS. All strains tested are clinical isolates either sensitive or resistant to natural glycopeptides. MIC values were determined using the CLSI-recommended broth microdilution procedure (Clinical and Laboratory Standards Institute, Methods for Dilution Antimicrobial Susceptibility Tests for Bacteria That Grow Aerobically; Approved Standard-Seventh Edition.). Automated liquid handlers (Multidrop 384, Labsystems, Helsinki, Finland; Biomek 2000 and Multimek 96, Beckman Coulter, Fullerton Calif.) were used to conduct serial dilutions and liquid transfers. The MIC value for vancomycin is given for comparison. The abbreviations for organisms tested are as follow: SA 100—Staphylococcus aureus 100 (ATCC 29213); SA 757—Staphylococcus aureus 757 (MRSA); SA 2012—Staphylococcus aureus 2012 (VISA); SE 835—Staphylococcus epidermidis 835; SE 831—Staphylococcus epidermidis 831 (MRSE); EFc 101—Enterococcus faecalis 101 (ATCC 29212); EFc 848—Enterococcus faecalis 848 (VRE, Van A); EFcm 800—Enterococcus faecium 800; EFcm 752—Enterococcus faecium 752 (VRE, Van A); SPNE 1195—Streptococcus pneumoniae 1195 (ATCC 49619); SPY 712—Streptococcus pyogenes 712.

[2] = test system: Enterococcus faecium 752 (VRE, Van A); assay: MIC, broth microdilution, EFcm 752; details: VRE, Van A, class symbols, read-out: MIC E FCM 752
Method: as §1

[3] = test system: Staphylococcus epidermidis 835; assay: MIC, broth microdilution, SE 835; details: Staphylococcus epidermidis, 835, class symbols, read-out: MIC SE 835
Method: as §1

Enterococcus faecium 800 = assay: MIC, broth microdilution, EFcm 800; details: Enterococcus faecium, 800, class symbols, read-out: MIC E FCM 800
Method: as §1

[4] = test system: Staphylococcus aureus 2012 (VISA); assay: MIC, broth microdilution, SA 2012; details: read-out: MIC SA 2012
Method: as §1

[5] = test system: Streptococcus pyogenes 712; assay: MIC, broth microdilution, SPY 712; details: Streptococcus pyogenes, 712, class symbols, read-out: MIC S PYO 712
Method: as §1

[6] = test system: Staphylococcus epidermidis 831 (MRSE); assay: MIC, broth microdilution, SE 831; details: Staphylococcus epidermidis, read-out: MIC SE 831
Method: as §1

[7] = test system: Staphylococcus aureus 757 (MRSA); assay: MIC, broth microdilution, SA 757; details: read-out: MIC SA 757
Method: as §1

[8] = test system: Enterococcus faecalis 848 (VRE, Van A); assay: MIC, broth microdilution, EFc 848; details: VRE, Van A, class symbols, read-out: MIC E FC 848
Method: as §1

[9] = test system: Enterococcus faecalis 101 (ATCC 29212); assay: MIC, broth microdilution, EFc 101; details: Enterococcus faecalis, ATCC29212, class symbols, read-out: MIC E FC 101
Method: as §1

[10] = test system: Streptococcus pneumoniae 1195 (ATCC 49619); assay: MIC, broth microdilution, SPNE 1195; details: Streptococcus pneumoniae, ATCC49619, class symbols, read-out: MIC S PNE 1195
Method: as §1

[11] = Table 2, in the presence of 0.002% Polysorbate 80
[12] = Table 2, in the presence of 0.002% Polysorbate 80, class symbols

CN[C@H](CC(C)C)C(=O)N[C@H]1C(=O)N[C@@H](CC(=O)NS(=O)(=O)c2ccc(OCCOC)cc2)C(=O)N[C@H]2C(=O)N[C@H]3C(=O)N[C@H](C(=O)N[C@H](C(=O)NC4C5CC6CC(C5)CC4C6)c4cc(O)cc(O)c4-c4cc3ccc4O)[C@H](O)c3ccc(c(Cl)c3)Oc3cc2cc(c3O[C@@H]2O[C@H](CN)[C@@H](O)[C@H](O)[C@H]2O)Oc2ccc(cc2Cl)[C@H]1O (some centres unmarked) [Compound 101]
MIC ([1]; Table 1): 0.01 to 0.5 µg/mL (≈ 0.00605 to 0.303 µM) | MIC ([2]; Table 1): 0.01 to 0.5 µg/mL (≈ 0.00605 to 0.303 µM) | MIC ([3]; Table 1): 0.01 to 0.5 µg/mL (≈ 0.00605 to 0.303 µM) | MIC (Enterococcus faecium 800; Table 1): 0.01 to 0.5 µg/mL (≈ 0.00605 to 0.303 µM) | MIC ([4]; Table 1, class symbols): 0.01 to 0.5 µg/mL (≈ 0.00605 to 0.303 µM) | MIC ([5]; Table 1): 0.01 to 0.5 µg/mL (≈ 0.00605 to 0.303 µM) | MIC ([6]; Table 1, class symbols): 0.01 to 0.5 µg/mL (≈ 0.00605 to 0.303 µM) | MIC ([7]; Table 1, class symbols): 0.01 to 0.5 µg/mL (≈ 0.00605 to 0.303 µM) | MIC ([8]; Table 1): 1 to 2 µg/mL (≈ 0.605 to 1.21 µM) | MIC ([9]; Table 1): 0.01 to 0.5 µg/mL (≈ 0.00605 to 0.303 µM) | MIC ([10]; Table 1): 0.01 to 0.5 µg/mL (≈ 0.00605 to 0.303 µM)

CCCCOc1ccc(S(=O)(=O)NC(=O)C[C@@H]2NC(=O)[C@H](NC(=O)[C@@H](CC(C)C)NC)[C@H](O)c3ccc(c(Cl)c3)Oc3cc4cc(c3O[C@@H]3O[C@H](CN)[C@@H](O)[C@H](O)[C@H]3O)Oc3ccc(cc3Cl)[C@@H](O)[C@@H]3NC(=O)[C@H](NC(=O)[C@@H]4NC2=O)c2ccc(O)c(c2)-c2c(O)cc(O)cc2[C@@H](C(=O)NC2C4CC5CC(C4)CC2C5)NC3=O)cc1 (some centres unmarked) [Compound 99]
MIC ([1]; Table 1): 0.01 to 0.5 µg/mL (≈ 0.00606 to 0.303 µM) | MIC ([2]; Table 1): 0.01 to 0.5 µg/mL (≈ 0.00606 to 0.303 µM) | MIC ([3]; Table 1): 0.01 to 0.5 µg/mL (≈ 0.00606 to 0.303 µM) | MIC (Enterococcus faecium 800; Table 1): 0.01 to 0.5 µg/mL (≈ 0.00606 to 0.303 µM) | MIC ([4]; Table 1, class symbols): 0.5 to 1 µg/mL (≈ 0.303 to 0.606 µM) | MIC ([5]; Table 1): 0.01 to 0.5 µg/mL (≈ 0.00606 to 0.303 µM) | MIC ([6]; Table 1, class symbols): 0.01 to 0.5 µg/mL (≈ 0.00606 to 0.303 µM) | MIC ([7]; Table 1, class symbols): 0.01 to 0.5 µg/mL (≈ 0.00606 to 0.303 µM) | MIC ([8]; Table 1): 0.5 to 1 µg/mL (≈ 0.303 to 0.606 µM) | MIC ([9]; Table 1): 0.01 to 0.5 µg/mL (≈ 0.00606 to 0.303 µM) | MIC ([10]; Table 1): 0.5 to 1 µg/mL (≈ 0.303 to 0.606 µM)

CCCCCCCCCC(=O)NC(=O)C[C@@H]1NC(=O)[C@H](NC(=O)[C@@H](CC(C)C)NC)[C@H](O)c2ccc(c(Cl)c2)Oc2cc3cc(c2O[C@@H]2O[C@H](CO)[C@@H](O)[C@H](O)[C@H]2O[C@H]2C[C@](C)(N)[C@H](O)[C@H](C)O2)Oc2ccc(cc2Cl)[C@@H](O)[C@@H]2NC(=O)[C@H](NC(=O)[C@@H]3NC1=O)c1ccc(O)c(c1)-c1c(O)cc(O)cc1[C@@H](C(=O)NC1C3CC4CC(C3)CC1C4)NC2=O (some centres unmarked) [Compound 43]
MIC ([1]; Table 1): 0.01 to 0.5 µg/mL (≈ 0.00576 to 0.288 µM) | MIC ([2]; Table 1): 0.01 to 0.5 µg/mL (≈ 0.00576 to 0.288 µM) | MIC ([3]; Table 1): 0.01 to 0.5 µg/mL (≈ 0.00576 to 0.288 µM) | MIC (Enterococcus faecium 800; Table 1): 0.01 to 0.5 µg/mL (≈ 0.00576 to 0.288 µM) | MIC ([4]; Table 1, class symbols): 1 to 2 µg/mL (≈ 0.576 to 1.15 µM) | MIC ([5]; Table 1): 0.01 to 0.5 µg/mL (≈ 0.00576 to 0.288 µM) | MIC ([6]; Table 1, class symbols): 0.01 to 0.5 µg/mL (≈ 0.00576 to 0.288 µM) | MIC ([7]; Table 1, class symbols): 0.5 to 1 µg/mL (≈ 0.288 to 0.576 µM) | MIC ([8]; Table 1): 1 to 2 µg/mL (≈ 0.576 to 1.15 µM) | MIC ([9]; Table 1): 0.01 to 0.5 µg/mL (≈ 0.00576 to 0.288 µM) | MIC ([10]; Table 1): 0.01 to 0.5 µg/mL (≈ 0.00576 to 0.288 µM)

CN[C@H](CC(C)C)C(=O)N[C@H]1C(=O)N[C@@H](CC(=O)NC(=O)c2ccc(OC)cc2)C(=O)N[C@H]2C(=O)N[C@H]3C(=O)N[C@H](C(=O)N[C@H](C(=O)NC4C5CC6CC(C5)CC4C6)c4cc(O)cc(O)c4-c4cc3ccc4O)[C@H](O)c3ccc(c(Cl)c3)Oc3cc2cc(c3O[C@@H]2O[C@H](CO)[C@@H](O)[C@H](O)[C@H]2O[C@H]2C[C@](C)(N)[C@H](O)[C@H](C)O2)Oc2ccc(cc2Cl)[C@H]1O (some centres unmarked) [Compound 62]
MIC [1, 11]: 0.01 to 0.5 µg/mL | MIC [2, 11]: 0.5 to 1 µg/mL | MIC [3, 11]: 0.01 to 0.5 µg/mL | MIC (Enterococcus faecium 800; [11]): 0.01 to 0.5 µg/mL | MIC [4, 12]: 2 to 4 µg/mL | MIC [5, 11]: 0.01 to 0.5 µg/mL | MIC [6, 12]: 0.01 to 0.5 µg/mL | MIC [7, 12]: 0.01 to 0.5 µg/mL | MIC [8, 11]: 4 to 8 µg/mL | MIC [9, 11]: 0.01 to 0.5 µg/mL | MIC [10, 11]: 0.01 to 0.5 µg/mL
